In PMC7176436, “Post-translational regulation of retinal IMPDH1 in vivo to adjust GTP synthesis to illumination conditions” (eLife, 2020):

Target: T1, IMPDH1 (murine retinal) (Mus musculus, UniProt P50096)
T1 construct: native, murine retina
Assay: IMPDH1 spicule formation in retinas treated with […] MPA; SDS-PAGE mobility shift after injection of its prodrug MMF
Format: cell-based

T1 sequence (P50096 whole entry): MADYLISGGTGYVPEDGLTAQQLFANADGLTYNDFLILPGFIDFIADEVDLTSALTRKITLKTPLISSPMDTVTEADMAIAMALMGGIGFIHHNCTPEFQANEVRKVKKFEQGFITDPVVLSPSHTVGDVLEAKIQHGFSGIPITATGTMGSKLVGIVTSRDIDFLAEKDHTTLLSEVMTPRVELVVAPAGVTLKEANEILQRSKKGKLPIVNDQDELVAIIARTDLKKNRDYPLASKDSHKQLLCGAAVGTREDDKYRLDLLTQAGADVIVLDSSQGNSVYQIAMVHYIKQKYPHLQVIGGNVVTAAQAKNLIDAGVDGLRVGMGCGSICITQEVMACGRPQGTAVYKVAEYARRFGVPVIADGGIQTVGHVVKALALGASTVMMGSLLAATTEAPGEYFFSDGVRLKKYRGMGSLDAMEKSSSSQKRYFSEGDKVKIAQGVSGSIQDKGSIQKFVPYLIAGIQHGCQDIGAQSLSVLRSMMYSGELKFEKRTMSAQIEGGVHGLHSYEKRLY

## COc1c(C)c2c(c(O)c1C/C=C(\C)CCC(=O)O)C(=O)OC2 [mycophenolic acid]
  IMPDH1 spicule formation in retinas treated with 10 μM MPA; SDS-PAGE mobility sh: MPA inhibition of IMPDH1 resulted in the formation and accumulation of IMPDH1 spicules with time
